# Data from patent US20250311727A1, “SUBSTITUTED 2-AMINOAZINES AND SALTS THEREOF, AND USE THEREOF AS HERBICIDAL ACTIVE SUBSTANCES” (BAYER AKTIENGESELLSCHAFT, priority 2022, published 2025).
# How the values were obtained:
# Format in all cases: in vivo
# Abutilon theophrasti [1] = test: Post-emergence herbicidal efficacy at 80 g/ha, ABUTH; details: rated visually after about 3 weeks vs untreated controls, 100% = plants have died
# Text: (§1) Unwanted plants/weeds: • ABUTH: Abutilon theophrasti • ALOMY: Alopecurus myosuroides • AMARE: Amaranthus retroflexus • DIGSA: Digitaria sanguinalis • ECHCG: Echinochloa crus-galli • KCHSC: Kochia scoparia • LOLRI: Lolium rigidum • MATIN: Matricaria inodora • POAAN: Poa annua • POLCO: Polygonum convolvulus • SETVI: Setaria viridis • STEME: Stellaria media • VERPE: Veronica persica • VIOTR: Viola tricolor A. Post-Emergence Herbicidal Efficacy at 320 g/ha
# (§2) Seeds of monocotyledonous and dicotyledonous weeds and crop plants were placed in sandy loam in plastic or organic planting pots, covered with soil and cultivated in a greenhouse under controlled growth conditions. 2 to 3 weeks after sowing, the test plants were treated at the one-leaf stage. The compounds of the invention, formulated in the form of wettable powders (WP) or as emulsion concentrates (EC), were then sprayed onto the green parts of the plants as aqueous suspension or emulsion with addition of 0.5% additive at a water application rate of 600 l/ha (converted). After the test plants had been kept in the greenhouse under optimum growth conditions for about 3 weeks, the activity of the preparations was rated visually in comparison to untreated controls. For example, 100% activity=the plants have died, 0% activity=like control plants.
# (§3) Tables B1 to B11 below show the effects of selected compounds of the general formula (I) according to Table 1 on various harmful plants and an application rate corresponding to 80 g/ha, which were obtained by the experimental procedure mentioned above.
# Amaranthus retroflexus [2] = test: Post-emergence herbicidal efficacy at 80 g/ha, AMARE; details: rated visually after about 3 weeks vs untreated controls, 100% = plants have died
# Outline: (§4)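 Greenhouse post-emergence spray, one-leaf stage (2–3 wk after sowing, sandy loam). Cpd as WP/EC, aqueous + 0.5% additive, 600 l/ha water. Visual rating ~3 wk post-treatment vs untreated; 0% = as control, 100% = plants dead.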
# Digitaria sanguinalis [3] = test: Post-emergence herbicidal efficacy at 80 g/ha, DIGSA; details: rated visually after about 3 weeks vs untreated controls, 100% = plants have died
# Text: as §1, §2, §3
# Echinochloa crus-galli [4] = test: Post-emergence herbicidal efficacy at 80 g/ha, ECHCG; details: rated visually after about 3 weeks vs untreated controls, 100% = plants have died
# Text: as §1, §2, §3
# Kochia scoparia [5] = test: Post-emergence herbicidal efficacy at 80 g/ha, KCHSC; details: rated visually after about 3 weeks vs untreated controls, 100% = plants have died
# Outline: as §4
# Setaria viridis [6] = test: Post-emergence herbicidal efficacy at 80 g/ha, SETVI; details: rated visually after about 3 weeks vs untreated controls, 100% = plants have died
# Text: as §1, §2, §3
# Veronica persica [7] = test: Post-emergence herbicidal efficacy at 80 g/ha, VERPE; details: rated visually after about 3 weeks vs untreated controls, 100% = plants have died
# Outline: as §4
# Viola tricolor [8] = test: Post-emergence herbicidal efficacy at 80 g/ha, VIOTR; details: rated visually after about 3 weeks vs untreated controls, 100% = plants have died
# Outline: as §4
# Abutilon theophrasti [9] = test: Pre-emergence herbicide efficacy at 80 g/ha, ABUTH; details: scored visually after about 3 weeks vs untreated controls, 100% = plants have died
# Text: as §1
# (§5) Seeds of monocotyledonous and dicotyledonous weed plants and crop plants were placed in plastic or organic planting pots and covered with soil. The compounds of the invention, formulated in the form of wettable powders (WP) or as emulsion concentrates (EC), were then applied to the surface of the covering soil as aqueous suspension or emulsion with addition of 0.5% additive at a water application rate equivalent to 600 l/ha. After the treatment, the pots were placed in a greenhouse and kept under good growth conditions for the test plants. After about 3 weeks, the efficacy of the preparations was scored visually in comparison with untreated controls as percentages. For example, 100% activity=the plants have died, 0% activity=like control plants.
# (§6) Tables D1 to D12 below show the effects of selected compounds of the general formula (I) according to Table 1 on various harmful plants and an application rate corresponding to 80 g/ha, which were obtained by the experimental procedure mentioned above.
# Alopecurus myosuroides = test: Pre-emergence herbicide efficacy at 80 g/ha, ALOMY; details: scored visually after about 3 weeks vs untreated controls, 100% = plants have died
# Text: as §1, §5, §6
# Amaranthus retroflexus [10] = test: Pre-emergence herbicide efficacy at 80 g/ha, AMARE; details: scored visually after about 3 weeks vs untreated controls, 100% = plants have died
# Outline: (§7)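 Visual scoring after about 3 weeks in the greenhouse, expressed as percent activity against untreated controls, where 100% means dead plants and 0% means no difference. Treatment was applied pre-emergence to the covering soil over sown seeds, as WP or EC in water with 0.5% additive, 600 l/ha.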
# Digitaria sanguinalis [11] = test: Pre-emergence herbicide efficacy at 80 g/ha, DIGSA; details: scored visually after about 3 weeks vs untreated controls, 100% = plants have died
# Outline: as §7
# Echinochloa crus-galli [12] = test: Pre-emergence herbicide efficacy at 80 g/ha, ECHCG; details: scored visually after about 3 weeks vs untreated controls, 100% = plants have died
# Outline: as §7
# Lolium rigidum = test: Pre-emergence herbicide efficacy at 80 g/ha, LOLRI; details: scored visually after about 3 weeks vs untreated controls, 100% = plants have died
# Text: as §1
# as §5, with “control plants. […]” for “control plants.”
# Kochia scoparia [13] = test: Pre-emergence herbicide efficacy at 80 g/ha, KCHSC; details: scored visually after about 3 weeks vs untreated controls, 100% = plants have died
# Outline: as §7
# Polygonum convolvulus = test: Pre-emergence herbicide efficacy at 80 g/ha, POLCO; details: scored visually after about 3 weeks vs untreated controls, 100% = plants have died
# Outline: as §7
# Setaria viridis [14] = test: Pre-emergence herbicide efficacy at 80 g/ha, SETVI
# Outline: as §7
# Veronica persica [15] = test: Pre-emergence herbicide efficacy at 80 g/ha, VERPE
# Outline: as §7
# Viola tricolor [16] = test: Pre-emergence herbicide efficacy at 80 g/ha, VIOTR
# Outline: as §7
smiles,measurement,setting,value
Fc1cnc(Nc2cccc(Cl)c2-c2cc(C(F)F)no2)nc1 [Example 1-62],Post-emergence efficacy at 80 g/ha against ABUTH in %,Abutilon theophrasti [1],90%
same,Post-emergence efficacy at 80 g/ha against AMARE in %,Amaranthus retroflexus [2],100%
same,Post-emergence efficacy at 80 g/ha against DIGSA in %,Digitaria sanguinalis [3],80%
same,Post-emergence efficacy at 80 g/ha against ECHCG in %,Echinochloa crus-galli [4],80%
same,Post-emergence efficacy at 80 g/ha against KCHSC in %,Kochia scoparia [5],100%
same,Post-emergence efficacy at 80 g/ha against SETVI in %,Setaria viridis [6],100%
same,Post-emergence efficacy at 80 g/ha against VERPE in %,Veronica persica [7],100%
same,Post-emergence efficacy at 80 g/ha against VIOTR in %,Viola tricolor [8],100%
same,Pre-emergence efficacy at 80 g/ha against ABUTH in %,Abutilon theophrasti [9],100%
same,Pre-emergence efficacy at 80 g/ha against ALOMY in %,Alopecurus myosuroides,100%
same,Pre-emergence efficacy at 80 g/ha against AMARE in %,Amaranthus retroflexus [10],100%
same,Pre-emergence efficacy at 80 g/ha against DIGSA in %,Digitaria sanguinalis [11],100%
same,Pre-emergence efficacy at 80 g/ha against ECHCG in %,Echinochloa crus-galli [12],100%
same,Pre-emergence efficacy at 80 g/ha against LOLRI in %,Lolium rigidum,100%
same,Pre-emergence efficacy at 80 g/ha against KCHSC in %,Kochia scoparia [13],100%
same,Pre-emergence efficacy at 80 g/ha against POLCO in %,Polygonum convolvulus,80%
same,Pre-emergence efficacy against SETVI,Setaria viridis [14],100%
same,Pre-emergence efficacy against VERPE,Veronica persica [15],100%
same,Pre-emergence efficacy against VIOTR,Viola tricolor [16],100%
